Data as given in patent publication US20200188466A1, “COMPOSITIONS OF SCHISANDRA EXTRACTS AND METHODS THEREOF” (Reyoung Corporation, priority 2017, published 2020).
Like-named read-outs stand apart in the source and are kept apart here.

Experiments:
[1] = Toxicological study: serum chemistry after celastrol with and without Schisandrin A; assay type: in vivo, Sprague Dawley rats; settings: rats, 24 hours after celastrol 1.8 mg/kg oral
Procedure: (§1) 42 Male Sprague Dawley rats (weight, 210-250 g) were maintained on a 12-hour light/dark cycle with free access to water and lab chow for 10-14 h prior to the experiment. Rats were randomly divided into 7 groups (n=6 each) and groups 2-7 received 0 mg/kg, 5.5 mg/kg, and 11.0 mg/kg, 22.0 mg/kg, 44.0 mg/kg and 88.0 mg/kg of Schisandrin A in 1% CMC-Na (300-800 cps) via oral administration, respectively. After 5 minutes, all the groups received 1.8 mg/kg of celastrol in a solution of 2% DMSO-98% sterile water via oral administration.
At 24 hours of celastrol treatment, blood was collected from the rats in plasma kinetic study.

[2] = Plasma kinetic study of celastrol with and without Schisandrin A; assay type: in vivo, Sprague Dawley rats; settings: rats; for Cmax / Tmax / AUC(0-t) / AUC(0-inf) / MRT last / MRT inf / half-life: male, Sprague Dawley, rat, plasma, po, 1.8 mg/kg; for AUC(0-t): read-out: AUC0→t of celastrol; for AUC(0-inf): read-out: AUC0→∞ of celastrol; for MRT last: read-out: MRT0→t of celastrol; for MRT inf: read-out: MRT0→∞ of celastrol; for half-life: read-out: T1/2 of celastrol (converted)
Procedure: as §1
After celastrol treatment, blood samples were collected from individual rat at 0.25 h, 0.5 h, 1 h, 2 h, 4 h, 8 h, 12 h, 24 h, 36 h, and 48 h, respectively. Plasma was separated by centrifugation at 8000 rpm for 6 minutes at 4° C. and kept at −80° C. until analysis. Plasma homogenate was injected into LC-MS/MS for analysis.

[3] = Group 1, no Schisandrin A dose stated
[4] = Group 2, Schisandrin A 0 mg/kg oral
[5] = Group 3, Schisandrin A 5.5 mg/kg oral
[6] = Group 4, Schisandrin A 11.0 mg/kg oral
[7] = Group 5, Schisandrin A 22.0 mg/kg oral
[8] = Group 6, Schisandrin A 44.0 mg/kg oral
[9] = Group 7, Schisandrin A 88.0 mg/kg oral
[10] = Group1, celastrol 1.8 mg/kg oral, no Schisandrin A dose stated
[11] = Group2, Schisandrin A 0 mg/kg oral 5 min before celastrol 1.8 mg/kg oral
[12] = Group3, Schisandrin A 5.5 mg/kg oral 5 min before celastrol 1.8 mg/kg oral
[13] = Group4, Schisandrin A 11.0 mg/kg oral 5 min before celastrol 1.8 mg/kg oral
[14] = Group5, Schisandrin A 22.0 mg/kg oral 5 min before celastrol 1.8 mg/kg oral
[15] = Group6, Schisandrin A 44.0 mg/kg oral 5 min before celastrol 1.8 mg/kg oral
[16] = Group7, Schisandrin A 88.0 mg/kg oral 5 min before celastrol 1.8 mg/kg oral

CC1=C(O)C(=O)C=C2C1=CC=C1[C@@]2(C)CC[C@@]2(C)[C@@H]3C[C@](C)(C(=O)O)CC[C@]3(C)CC[C@]12C [celastrol]
Serum ALT [1, 3]: 54.5 ± 6.7 U/L | Serum AST [1, 3]: 100.0 ± 7.0 U/L | Serum creatinine [1, 3]: 0.48 ± 0.01 mg/dL | Serum urea [1, 3]: 19.6 ± 2.7 mg/dL | Serum ALT [1, 4]: 51.2 ± 3.5 U/L | Serum AST [1, 4]: 92.0 ± 6.0 U/L | Serum creatinine [1, 4]: 0.49 ± 0.05 mg/dL | Serum urea [1, 4]: 20.1 ± 1.8 mg/dL | Serum ALT [1, 5]: 54.5 ± 5.7 U/L | Serum AST [1, 5]: 91.0 ± 4.0 U/L | Serum creatinine [1, 5]: 0.48 ± 0.02 mg/dL | Serum urea [1, 5]: 19.4 ± 2.5 mg/dL | Serum ALT [1, 6]: 52.5 ± 5.8 U/L | Serum AST [1, 6]: 91.0 ± 9.0 U/L | Serum creatinine [1, 6]: 0.49 ± 0.02 mg/dL | Serum urea [1, 6]: 18.3 ± 1.5 mg/dL | Serum ALT [1, 7]: 49.3 ± 6.1 U/L | Serum AST [1, 7]: 106.0 ± 14.0 U/L | Serum creatinine [1, 7]: 0.50 ± 0.02 mg/dL | Serum urea [1, 7]: 16.5 ± 1.5 mg/dL | Serum ALT [1, 8]: 52.4 ± 8.3 U/L | Serum AST [1, 8]: 111.0 ± 40.0 U/L | Serum creatinine [1, 8]: 0.49 ± 0.01 mg/dL | Serum urea [1, 8]: 17.9 ± 4.0 mg/dL | Serum ALT [1, 9]: 53.4 ± 7.1 U/L | Serum AST [1, 9]: 92.0 ± 9.0 U/L | Serum creatinine [1, 9]: 0.49 ± 0.03 mg/dL | Serum urea [1, 9]: 18.8 ± 3.4 mg/dL | T1/2 of celastrol [2, 10]: 10.07 ± 2.48 h | Cmax [2, 10]: 7.03 ± 2.65 ng/mL | Tmax [2, 10]: 5.33 ± 2.07 h | AUC(0-t) [2, 10]: 103 ± 28.2 ng·h/mL | AUC(0-inf) [2, 10]: 125 ± 22.4 ng·h/mL | MRT last [2, 10]: 12.1 ± 1.74 h | MRT inf [2, 10]: 12.1 ± 3.49 h | Cmax [2, 11]: 5.94 ± 1.38 ng/mL | Tmax [2, 11]: 4 h | AUC(0-t) [2, 11]: 93.2 ± 2.74 ng·h/mL | AUC(0-inf) [2, 11]: 107 ± 19.6 ng·h/mL | MRT last [2, 11]: 12 ± 1.82 h | MRT inf [2, 11]: 12 ± 2.33 h | half-life [2, 11]: 12.1 ± 1.77 h | Cmax [2, 12]: 7.13 ± 1.86 ng/mL | Tmax [2, 12]: 5.6 ± 3.58 h | AUC(0-t) [2, 12]: 117 ± 27.8 ng·h/mL | AUC(0-inf) [2, 12]: 124 ± 27.9 ng·h/mL | MRT last [2, 12]: 13.1 ± 2.27 h | MRT inf [2, 12]: 18.8 ± 8.57 h | half-life [2, 12]: 11.5 ± 5.18 h | Cmax [2, 13]: 7.08 ± 0.57 ng/mL | Tmax [2, 13]: 4 h | AUC(0-t) [2, 13]: 123 ± 20.1 ng·h/mL | AUC(0-inf) [2, 13]: 133 ± 20.1 ng·h/mL | MRT last [2, 13]: 12.9 ± 1.05 h | MRT inf [2, 13]: 15.7 ± 1.91 h | half-life [2, 13]: 9.1 ± 1.71 h | Cmax [2, 14]: 7.45 ± 2.72 ng/mL | Tmax [2, 14]: 9.33 ± 4.13 h | AUC(0-t) [2, 14]: 146 ± 48.4 ng·h/mL | AUC(0-inf) [2, 14]: 121 ± 31.7 ng·h/mL | MRT last [2, 14]: 14.2 ± 1.26 h | MRT inf [2, 14]: 16.9 ± 1.65 h | half-life [2, 14]: 10.3 ± 1.76 h | Cmax [2, 15]: 7.43 ± 3.47 ng/mL | Tmax [2, 15]: 10.7 ± 3.27 h | AUC(0-t) [2, 15]: 156 ± 68.5 ng·h/mL | AUC(0-inf) [2, 15]: 198 ± 94.4 ng·h/mL | MRT last [2, 15]: 14.9 ± 2.32 h | MRT inf [2, 15]: 33.1 ± 20.5 h | half-life [2, 15]: 23.8 ± 18 h | Cmax [2, 16]: 9.15 ± 6.48 ng/mL | Tmax [2, 16]: 6.67 ± 4.13 h | AUC(0-t) [2, 16]: 171 ± 99.1 ng·h/mL | AUC(0-inf) [2, 16]: 186 ± 108 ng·h/mL | MRT last [2, 16]: 14.2 ± 1.18 h | MRT inf [2, 16]: 16.7 ± 1.68 h | half-life [2, 16]: 9.29 ± 1.97 h
